Experiment [1] concerns human pancreatic cancer Mia PaCa-2 cells xenograft. Nature of the experiment: Subcutaneous xenograft tumor model of Mia PaCa-2 cells in BALB/c nude mouse. The format is in vivo. The following applies: Mia PaCa-2 xenograft, BALB/c nude mice, gavage once a day; for TGI(%): Day 21. The procedure: The in vivo efficacy of the representative compounds of the present disclosure in the subcutaneous xenograft tumor model of human pancreatic cancer Mia PaCa-2 cells was evaluated.
[Test materials]: BALB/c nude mice of 6-8 weeks, female, Zhejiang Vital River Laboratory Animal Technology Co., Ltd. Human pancreatic cancer Mia PaCa-2 cells (ATCC, Cat #: CRL-1420). Matrigel (Matrigel, Corning, Cat. No. 356234).
[Experimental procedure]: 0.2 mL (5×10^6) Mia PaCa-2 cells (plus Matrigel, volume ratio 1:1) were inoculated subcutaneously on the right back dorsal of each mouse. […] During the assay, tumor volumes and body weights were measured twice a week.
The tumor volume was calculated according to the following formula: V=0.5a×b^2, where a and b represent the long and short diameters of the tumor, respectively.

Another experiment has as its system BaF3-KRas-G12C-R68S. Nature of the experiment: Proliferation of KRas G12C inhibitor-resistant cell model, CTG. It is filed as cell-based. The following applies: Adagrasib acquired-resistance model. The procedure:
(§1) Each of the above cell lines was cultured in the indicated complete medium at 37° C., 5% CO2, and the cells in the logarithmic growth phase were harvested and counted using a platelet counter. The cell viability was detected by the trypan blue exclusion method to ensure that the cell viability was above 90%. Cell density was adjusted using complete medium, and then inoculated into 96-well cell culture plates, at 90 μL and a total of 3000 cells per well. The cells in the 96-well plate were cultured at 37° C. and 5% CO2.
(§2) 10 μL of each diluted compound solution was transferred to the corresponding experimental well of the 96-well cell plate and each concentration was set three replicate wells. The cells in the 96-well plate that had been dosed were incubated at 37° C. and 5% CO2 for 72 hours, and then CTG analysis was performed.
(§3) The CTG reagent was melted, and the cell plate was moved to room temperature to equilibrate for 30 minutes. 100 μL of CTG solution was added to each well, and shaken on an orbital shaker for 5 minutes to fully lyse the cells. The plate was kept at room temperature for 20 minutes to stabilize the luminescence signal, and the luminescence value of each well was scanned and the data was collected. GraphPad Prism 7.0 software was used to analyze the data, and the nonlinear Sigmoidal regression was used to fit the data to obtain a dose-response curve. The relative and absolute IC50 values and the maximum inhibition rate were calculated according to conventional methods well known to those skilled in the art.
(§4) Inhibition rate %=[1−(LumDrug to be tested−LumCulture medium control)/(LUMCell control−LumCulture medium control)]×100%
(§5) Acquired resistance is one of the key factors that affect the treatment efficacy of KRas G12C inhibitors.
(§6) All cell lines used in this assay were provided by KYinno Biotechnology Co., Ltd.

A further experiment deals with BaF3-KRas-G12C-Y96C. Described as above. It is filed as cell-based. The following applies: Adagrasib acquired-resistance model. The method, then:
as §1, §2, §3, §4, §5, §6

For another experiment, the system named is BaF3-KRas-G12C-H95D. Described as above. The format is cell-based. The following applies: Adagrasib acquired-resistance model. The method, then: as §1, §2, §3, §4, §5, §6
In the next experiment the test system is BaF3-KRas-G12C-H95Q. The experiment is described as above. The following applies: Adagrasib acquired-resistance model. The format is cell-based. The method, then: as §1, §2, §3, §4, §5, §6
A further experiment has as its system BaF3-KRas-G12C-Y96D. The description is as above. The format is cell-based. The following applies: Adagrasib acquired-resistance model. The method, then: as §1, §2, §3, §4, §5, §6
For another experiment, the system named is A549 (KRasG12S). Nature of the experiment: KRas mutant cell proliferation, CellTiter-Glo (CTG). The format is cell-based. The following applies: Homo sapiens, A549, KRas G12S, lung cancer, 72 h; for inhibition at up to 10 µM: top concentration 10 μM, read-out: Maximum inhibition %.
Description: (§7) In this assay, the CellTiter-Glo (CTG) kit of Promega was used to evaluate the anti-proliferation activities of the compounds of the present disclosure on 12 KRas mutant tumor cell lines.
(§8) [Test materials]: RPMI1640 medium (Hyclone, Cat #SH30809.01); fetal bovine serum (FBS) (Gibco, Cat #10099-141); phosphate buffer PBS (Solarbio, Cat #P1020-500); DMSO (Sigma, Cat #D8418-1L); detection kit CTG (Promega, Cat #G7573); 96-well cell culture plate (Thermo, Cat #3100 Series); Vibrator (QILINBEIER, Cat #QB-9001); Incubator (Thermo Scientific, Cat #Model 3100 series); microscope (OLYMPUS, Cat #CKX41SF); multi-function microplate reader (BMG LABTECH, Cat #CLARIOstar® Plus); biological safety cabinet (Thermo, Cat #Model 1300 Series A2). All cell lines used in the following assay were purchased from KYinno Biotechnology Co., Ltd.
as §1
(§9) The test compound solution in culture medium was prepared, the top concentration was 10 μM, serially diluted at a dilution factor of 3.16 to afford 9 concentrations. 10 μL of each diluted compound solution was transferred to the corresponding experimental well of the 96-well cell plate and each concentration was set three replicate wells. The cells in the 96-well plate that had been dosed were incubated at 37° C. and 5% CO2 for 72 hours, and then CTG analysis was performed.
as §3, §4
Background: Cellular ATP, detected with luciferase, serves as a proxy for viable cell number.

Another experiment concerns Kyse-410 (KRas-G12C). Described as above. The format is cell-based. The following applies: Homo sapiens, esophageal cancer, 72 h; for inhibition at up to 10 µM: top concentration 10 μM, read-out: Maximum inhibition %.
Description: as §7, §8, §1, §9, §3, §4

A further experiment concerns MIA-PaCa-2 (KRas-G12C). The description is as above. The following applies: Homo sapiens, pancreatic cancer, 72 h; for inhibition at up to 10 µM: top concentration 10 μM, read-out: Maximum inhibition %. It is filed as cell-based.
Description: as §7, §8, §1, §9, §3, §4

Another experiment concerns H23 (KRas-G12C). The description is as above. It is filed as cell-based. The following applies: lung cancer, 72 h; for inhibition at up to 10 µM: top concentration 10 μM, read-out: Maximum inhibition %.
Description: as §7, §8, §1, §9, §3, §4

The next experiment concerns T84 (KRas-G13D). Described as above. The format is cell-based. The following applies: colon cancer, 72 h; for inhibition at up to 10 µM: top concentration 10 μM, read-out: Maximum inhibition %.
Description: as §7, §8, §1, §9, §3, §4

The test system of another experiment is HCT116 (KRas-G13D). The experiment is described as above. The format is cell-based. The following applies: Homo sapiens, HCT-116, colorectal cancer, 72 h; for inhibition at up to 10 µM: top concentration 10 μM, read-out: Maximum inhibition %.
Description: as §7, §8, §1, §9, §3, §4

In another experiment the test system is H1373 (KRas-G12C). Described as above. The following applies: Homo sapiens, NCI-H1373, lung cancer, 72 h; for inhibition at up to 10 µM: top concentration 10 μM, read-out: Maximum inhibition %. It is filed as cell-based.
Description: as §7, §8, §1, §9, §3, §4

Like-named read-outs stand apart in the source and are kept apart here.

`C=CC(=O)N1CCN(c2c(C#N)cnc3c(F)c(-c4ccc(F)c5sc(N)nc45)c(Cl)cc23)CC1` [Example 9, 4-(4-Acryloylpiperazin-1-yl)-7-(2-amino-7-fluorobenzo[d]thiazol-4-yl)-6-chloro-8-fluoroquinoline-3-carbonitrile]: the “Tumor volume (mm^3) (Day 21)” value in experiment [1] (3 mpk) worked out at 665 mm^3; in experiment [1] (10 mpk), 246 mm^3; in experiment [1] (30 mpk) it was 162 mm^3. Besides, the “TGI(%)” value in experiment [1] (3 mpk) was determined as 50.4%; in [1] (10 mpk), 89.8%; in experiment [1] (30 mpk), 97.7%. Besides, the IC50 (in general, the concentration needed to halve the response being measured) was 560 nM with BaF3-KRas-G12C-R68S; 310 nM in the experiment on BaF3-KRas-G12C-Y96C; 100 nM in the experiment with BaF3-KRas-G12C-H95D; 91 nM in the experiment on BaF3-KRas-G12C-H95Q; 1290 nM in the experiment with BaF3-KRas-G12C-Y96D; over 10000 nM with A549 (KRasG12S) (read-out: Absolute IC50). The IC50 in the experiment with A549 (KRasG12S) (read-out: Relative IC50) is over 10000 nM; with Kyse-410 (KRas-G12C) (read-out: Absolute IC50), 1570 nM; with Kyse-410 (KRas-G12C) (read-out: Relative IC50) it was 2040 nM; with MIA-PaCa-2 (KRas-G12C) (read-out: Absolute IC50), 81 nM; with MIA-PaCa-2 (KRas-G12C) (read-out: Relative IC50), 36 nM; with H23 (KRas-G12C) (read-out: Absolute IC50), 273 nM. Moreover, the IC50 with H23 (KRas-G12C) (read-out: Relative IC50) is 205 nM; with T84 (KRas-G13D) (read-out: Absolute IC50), over 10000 nM; in the experiment on T84 (KRas-G13D) (read-out: Relative IC50), over 10000 nM; in the experiment with HCT116 (KRas-G13D) (read-out: Absolute IC50), 7060 nM; in the experiment on HCT116 (KRas-G13D) (read-out: Relative IC50), 5890 nM; with H1373 (KRas-G12C) (read-out: Absolute IC50), 1510 nM. Besides, in the experiment with H1373 (KRas-G12C) (read-out: Relative IC50), the IC50 is 1640 nM. Moreover, the inhibition (commonly the percentage by which the read-out fell short of the control) at up to 10 µM came to 44.1% in the experiment with A549 (KRasG12S); 77.5% with Kyse-410 (KRas-G12C); 85.9% in the experiment with MIA-PaCa-2 (KRas-G12C); 94.4% with H23 (KRas-G12C); 14.7% with T84 (KRas-G13D); 62% with HCT116 (KRas-G13D). Further, the inhibition at up to 10 µM in the experiment with H1373 (KRas-G12C) is 80.3%.

For the molecule `C=CC(=O)N1CCN(c2ncnc3c(F)c(-c4ccc(F)c5sc(N)nc45)c(Cl)cc23)CC1` [Ref. Comp. A, reference compound], the half-maximal inhibitory concentration (IC50) with BaF3-KRas-G12C-R68S is 1790 nM; in the experiment on BaF3-KRas-G12C-Y96C it was 550 nM; in the experiment with BaF3-KRas-G12C-H95D, 150 nM; in the experiment on BaF3-KRas-G12C-H95Q, 120 nM; in the experiment on BaF3-KRas-G12C-Y96D it was 3240 nM; in the experiment with A549 (KRasG12S) (read-out: Absolute IC50), over 10000 nM. The IC50 with A549 (KRasG12S) (read-out: Relative IC50) was over 10000 nM; with Kyse-410 (KRas-G12C) (read-out: Absolute IC50), 7240 nM; with Kyse-410 (KRas-G12C) (read-out: Relative IC50) it was 5630 nM; with MIA-PaCa-2 (KRas-G12C) (read-out: Absolute IC50), 92 nM; in the experiment on MIA-PaCa-2 (KRas-G12C) (read-out: Relative IC50), 41 nM; with H23 (KRas-G12C) (read-out: Absolute IC50) it was 521 nM. Also, the IC50 was 320 nM in the experiment on H23 (KRas-G12C) (read-out: Relative IC50); over 10000 nM with T84 (KRas-G13D) (read-out: Absolute IC50); over 10000 nM in the experiment with T84 (KRas-G13D) (read-out: Relative IC50); over 10000 nM with HCT116 (KRas-G13D) (read-out: Absolute IC50); over 10000 nM with HCT116 (KRas-G13D) (read-out: Relative IC50); 3240 nM in the experiment on H1373 (KRas-G12C) (read-out: Absolute IC50). For the same molecule, in the experiment on H1373 (KRas-G12C) (read-out: Relative IC50), the IC50 was found to be 1920 nM. The inhibition at up to 10 µM is 19.7% with A549 (KRasG12S); 58.3% in the experiment on Kyse-410 (KRas-G12C); 74.5% in the experiment on MIA-PaCa-2 (KRas-G12C); 85.9% in the experiment with H23 (KRas-G12C); 4.59% with T84 (KRas-G13D); 29.3% in the experiment with HCT116 (KRas-G13D). Besides, in the experiment with H1373 (KRas-G12C), the inhibition at up to 10 µM is 65.2%.

On to `C=CC(=O)N1CCN(c2nc(=O)n(-c3c(C)ccnc3C(C)C)c3nc(-c4c(O)cccc4F)c(F)cc23)[C@@H](C)C1` (atropisomer, axis not shown) [AMG510, reference compound], for which, in experiment [1] (10 mpk), the “Tumor volume (mm^3) (Day 21)” value is given as 432 mm^3 and the “TGI(%)” value was determined as 72.3%.

The values are drawn from patent publication US20230406849A1, “KRAS INHIBITORS FOR TREATMENT OF CANCERS” (TYLIGAND BIOSCIENCE (SHANGHAI) LIMITED, priority 2020, published 2023).
